Assay results as given in US20230096766A1, “AMINO ACID HAVING FUNCTIONAL GROUP CAPABLE OF INTERMOLECULAR HYDROGEN BONDING, PEPTIDE COMPOUND CONTAINING SAME AND METHOD FOR PRODUCTION THEREOF” (Chugai Seiyaku Kabushiki Kaisha, priority 2018, published 2023).
*1 amine or outer side, *2 acyl side, *3 side chain or, on linkers, in order; H or OH if unused. Where a SMILES comes first, the peptide text is derived from it. Bridges are numbered along the chain shown (N, C = ends). [ ]: non-standard residue; d: D form. The star is where a group is joined. ξ: configuration not given here. NMeAbu(4-morpholino) = CN[C@@H](CCN1CCOCC1)C(=O)O; Phe(4-CF3) = N[C@@H](Cc1ccc(C(F)(F)F)cc1)C(=O)O; NMePhe(3-Cl) = CN[C@@H](Cc1cccc(Cl)c1)C(=O)O; X12 = O=C([C@H](CCCC(O)C(F)(F)F)N[*:1])[*:2]; ξGln(SO2Me) = CS(=O)(=O)NC(=O)CCC(N)C(=O)O; Propyl(2,2-Me2,3-OH) = CC(C)(CO)C*; NMeF = CN[C@@H](Cc1ccccc1)C(=O)O; NMeGABA = CN(CCCC(=O)[*:2])[*:1]; NMeI = CC[C@H](C)[C@H](NC)C(=O)O; NMeL = CN[C@@H](CC(C)C)C(=O)O; Butyl(3R-OH) = C[C@@H](O)CC*; NMeV = CN[C@H](C(=O)O)C(C)C; NMeAbu = CC[C@H](NC)C(=O)O; NMeA = CN[C@@H](C)C(=O)O; Piperidide = C1CCN(*)CC1; dAbu = CC[C@@H](N)C(=O)O; NBuGly = CCCCNCC(=O)O; NPrGly = CCCNCC(=O)O; Propyl(3-OH) = OCCC*; Sar = CNCC(=O)O; tBu = CC(C)(C)*

Assay: in vitro
Conditions: human
[1] = Caco-2, Caco-2 (membrane permeability)

SMILES: CCCN1CC(=O)N(C)[C@@H](CC(C)C)C(=O)N[C@H](C(=O)N2CCCCC2)CC(=O)N(C)[C@@H](CC(C)C)C(=O)N[C@@H](Cc2ccc(C(F)(F)F)cc2)C(=O)N(C)[C@@H](CC(C)C)C(=O)N(C)[C@@H](CC(C)C)C(=O)N[C@@H](CCC(=O)NC)C(=O)N(C)[C@@H](Cc2ccccc2)C(=O)N(C)[C@@H]([C@@H](C)CC)C(=O)N[C@@H]([C@@H](C)O)C1=O [Compound J04] ([NMeL][Phe(4-CF3)][NMeL][NMeL]E(NHMe)[NMeF][NMeI]T[NPrGly][NMeL]D-Piperidide; lactam N-11)
- Papp [1]: 0.087 ×10⁻⁶ cm/s

SMILES: CCCCN1CC(=O)N(C)[C@@H](CC(C)C)C(=O)N[C@@H](COC(C)(C)C)C(=O)N(C)[C@@H](Cc2ccccc2)C(=O)N(C)[C@@H](CC(C)C)C(=O)N[C@H](C(=O)N2CCCCC2)CC(=O)N[C@H](CC)C(=O)N(C)[C@@H](Cc2ccccc2)C(=O)N[C@@H](COCC(C)(C)CO)C(=O)N(C)[C@@H](CC(C)C)C(=O)N[C@@H]([C@@H](C)O)C1=O [AP117] ([dAbu][NMeF]S(Propyl(2,2-Me2,3-OH))[NMeL]T[NBuGly][NMeL]S(tBu)[NMeF][NMeL]D-Piperidide; lactam N-11)
- Papp (Caco-2, Caco-2 (cm/sec)): 0.36 ×10⁻⁶ cm/s

SMILES: CC(C)C[C@H]1C(=O)N[C@@H](COCC[C@@H](C)O)C(=O)N(C)[C@@H](Cc2ccccc2)C(=O)N(C)[C@@H](Cc2cccc(Cl)c2)C(=O)N[C@@H](COC(C)(C)C)C(=O)N(C)[C@@H](CC(C)C)C(=O)N[C@@H]([C@@H](C)O)C(=O)N(C)[C@@H](CC(C)C)C(=O)N(C)[C@@H](CC(C)C)C(=O)N[C@H](C(=O)N2CCCCC2)CC(=O)N(C)CCCC(=O)N1C [AP115] ([NMeGABA][NMeL]S(Butyl(3R-OH))[NMeF][NMePhe(3-Cl)]S(tBu)[NMeL]T[NMeL][NMeL]D-Piperidide; lactam N-11)
- Papp (Caco-2, Caco-2 (cm/sec)): 0.27 ×10⁻⁶ cm/s

SMILES: CCCCN1CC(=O)N(C)[C@@H](C(C)C)C(=O)N[C@H](C(=O)N2CCCCC2)CC(=O)N(C)[C@@H](CC)C(=O)NC(CCC(=O)NS(C)(=O)=O)C(=O)N(C)[C@@H](CC(C)C)C(=O)N(C)[C@@H](Cc2cccc(Cl)c2)C(=O)N[C@@H](CC(C)C)C(=O)N(C)[C@@H](Cc2ccccc2)C(=O)N(C)[C@@H](CC(C)C)C(=O)N[C@@H]([C@@H](C)O)C1=O (stereo partly drawn) [pd63] ([NMeAbu][ξGln(SO2Me)][NMeL][NMePhe(3-Cl)]L[NMeF][NMeL]T[NBuGly][NMeV]D-Piperidide; lactam N-11)
- Papp (Caco-2, Caco-2): < 0.1 ×10⁻⁶ cm/s

SMILES: CC[C@H](C)[C@@H]1NC(=O)[C@H](CC(C)C)N(C)C(=O)CCCN(C)C(=O)C[C@@H](C(=O)N2CCCCC2)NC(=O)[C@H](CC(C)C)N(C)C(=O)[C@H](CC(C)C)N(C)C(=O)[C@H]([C@@H](C)O)NC(=O)[C@H](CC(C)C)N(C)C(=O)[C@H](CCCC(O)C(F)(F)F)NC(=O)[C@H](Cc2ccccc2)N(C)C(=O)[C@H](Cc2ccccc2)N(C)C1=O (stereo partly drawn) [Compound D03] ([NMeGABA][NMeL]I[NMeF][NMeF][X12][NMeL]T[NMeL][NMeL]D-Piperidide; lactam N-11)
- Papp [1]: 0.33 ×10⁻⁶ cm/s

SMILES: CC(C)C[C@@H]1NC(=O)[C@H](Cc2ccccc2)N(C)C(=O)[C@@H](C(C)C)NC(=O)C[C@@H](C(=O)N2CCCCC2)NC(=O)[C@H](CC(C)C)N(C)C(=O)[C@H](Cc2cccc(Cl)c2)N(C)C(=O)[C@H](COCCCO)NC(=O)[C@H](CC(C)C)N(C)C(=O)CN(C)C(=O)[C@H]([C@@H](C)O)NC(=O)[C@H](CC(C)C)N(C)C1=O [AP90] ([dV][NMeF]L[NMeL]T[Sar][NMeL]S(Propyl(3-OH))[NMePhe(3-Cl)][NMeL]D-Piperidide; lactam N-11)
- Papp (Caco-2, Caco-2 (cm/sec)): 3.3 ×10⁻⁶ cm/s

SMILES: CCCCN1CC(=O)N(C)[C@@H](C(C)C)C(=O)N[C@H](C(=O)N2CCCCC2)CC(=O)N(C)[C@@H](C)C(=O)N[C@@H](CC(C)C)C(=O)N(C)[C@@H](CC(C)C)C(=O)N(C)[C@@H](Cc2ccccc2)C(=O)N[C@@H](CC(C)C)C(=O)N(C)[C@@H](Cc2ccccc2)C(=O)N(C)[C@@H](CCN2CCOCC2)C(=O)N[C@@H]([C@@H](C)O)C1=O [pd453] ([NMeA]L[NMeL][NMeF]L[NMeF][NMeAbu(4-morpholino)]T[NBuGly][NMeV]D-Piperidide; lactam N-11)
- Papp (Caco-2, Caco-2): 2.3 ×10⁻⁶ cm/s
